Results taken from US6723727B1, “Substituted purine derivatives, processes for their preparation, their use, and compositions comprising them” (Hoechst Aktiengesellschaft, priority 1996, dated 2004).

Biological target: human vitronectin receptor αvβ3 (Homo sapiens, UniProt P05106+P06756)
Assay: Inhibition of binding of kistrin to human vitronectin receptor (αvβ3 ELISA test, K/VnR)
Settings: for K/VnR Inhibition at 10 μM (in %): 10 μM test compound

Chain of human vitronectin receptor αvβ3 (P06756 31-889 limits assumed): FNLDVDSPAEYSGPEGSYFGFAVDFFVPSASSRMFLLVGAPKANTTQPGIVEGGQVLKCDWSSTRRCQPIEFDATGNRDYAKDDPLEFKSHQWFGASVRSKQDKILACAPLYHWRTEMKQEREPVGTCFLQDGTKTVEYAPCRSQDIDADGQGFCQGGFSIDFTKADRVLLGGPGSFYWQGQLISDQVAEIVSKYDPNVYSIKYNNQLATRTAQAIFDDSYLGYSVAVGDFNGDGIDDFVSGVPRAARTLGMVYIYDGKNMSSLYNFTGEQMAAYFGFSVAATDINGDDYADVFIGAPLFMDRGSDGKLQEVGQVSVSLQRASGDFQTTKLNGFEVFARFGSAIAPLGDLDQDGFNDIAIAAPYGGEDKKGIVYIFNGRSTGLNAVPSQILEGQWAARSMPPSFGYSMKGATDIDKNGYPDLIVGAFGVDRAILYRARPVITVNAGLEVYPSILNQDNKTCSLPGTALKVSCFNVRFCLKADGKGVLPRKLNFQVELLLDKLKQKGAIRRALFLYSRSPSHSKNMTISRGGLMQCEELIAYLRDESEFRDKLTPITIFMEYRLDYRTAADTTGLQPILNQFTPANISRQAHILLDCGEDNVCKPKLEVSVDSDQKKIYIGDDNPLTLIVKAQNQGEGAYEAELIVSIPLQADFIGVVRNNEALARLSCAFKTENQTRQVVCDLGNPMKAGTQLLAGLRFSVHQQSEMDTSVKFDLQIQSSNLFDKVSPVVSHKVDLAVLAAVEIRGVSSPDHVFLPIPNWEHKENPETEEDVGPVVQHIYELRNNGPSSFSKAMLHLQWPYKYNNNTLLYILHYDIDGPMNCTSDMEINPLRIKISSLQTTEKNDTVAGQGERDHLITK
Chain of human vitronectin receptor αvβ3 (P06756 891-1048 limits assumed): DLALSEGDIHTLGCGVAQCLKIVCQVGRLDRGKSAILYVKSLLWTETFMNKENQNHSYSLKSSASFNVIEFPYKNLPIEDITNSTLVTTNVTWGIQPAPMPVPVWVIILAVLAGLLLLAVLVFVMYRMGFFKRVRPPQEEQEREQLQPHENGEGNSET
Chain of human vitronectin receptor αvβ3 (P05106 27-788): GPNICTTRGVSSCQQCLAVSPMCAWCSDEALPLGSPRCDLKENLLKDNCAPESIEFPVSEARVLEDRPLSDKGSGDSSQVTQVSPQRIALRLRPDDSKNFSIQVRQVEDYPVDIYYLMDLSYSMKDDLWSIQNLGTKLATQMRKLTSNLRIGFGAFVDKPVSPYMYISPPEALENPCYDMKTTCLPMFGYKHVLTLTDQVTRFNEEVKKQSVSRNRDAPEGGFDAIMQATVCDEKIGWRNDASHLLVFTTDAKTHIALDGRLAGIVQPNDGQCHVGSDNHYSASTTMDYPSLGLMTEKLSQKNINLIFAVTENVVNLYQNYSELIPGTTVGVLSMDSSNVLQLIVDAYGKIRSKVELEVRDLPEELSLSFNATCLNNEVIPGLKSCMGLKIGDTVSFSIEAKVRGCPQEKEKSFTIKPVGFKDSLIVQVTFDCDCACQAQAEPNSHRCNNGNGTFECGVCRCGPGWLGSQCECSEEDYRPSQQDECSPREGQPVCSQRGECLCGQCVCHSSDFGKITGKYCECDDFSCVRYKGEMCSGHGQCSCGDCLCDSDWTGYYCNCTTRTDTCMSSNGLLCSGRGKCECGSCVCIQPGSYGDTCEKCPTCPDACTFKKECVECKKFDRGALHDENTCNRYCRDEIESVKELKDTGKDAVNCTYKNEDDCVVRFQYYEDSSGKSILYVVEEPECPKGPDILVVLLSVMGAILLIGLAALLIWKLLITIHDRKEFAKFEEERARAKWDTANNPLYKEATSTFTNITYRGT

N=C(N)NCCCNc1ncnc2c1ncn2C[C@H](NC(=O)OCc1ccccc1)C(=O)O [Example 3, N^6-(1-(3-Guanidinopropyl))-N^9-(3-(2S-(benzyloxycarbonylamino)propionic acid))-adenine]
IC50: 2200 nM

O=C(N[C@@H](Cn1cnc2c(N3CCC(C(=O)NC4=NCCCN4)CC3)ncnc21)C(=O)O)OCc1ccccc1 [Example 19, 2S-Benzyloxycarbonylamino-3-(6-(4-(1,4,5,6-tetrahydropyrimidin-2-yl-carbamoyl)piperidin-1-yl)purin-9-yl)propionic acid]
IC50: 4 nM

NCCCCCn1cnc2c(NC[C@H](NC(=O)OCc3ccccc3)C(=O)O)ncnc21 [Example 14c, N^6-(3-(2S-(Benzyloxycarbonylamino)propionic acid))-N^9-(1-(5-amino-pentyl))-adenine]
K/VnR Inhibition at 10 μM (in %): 22%

O=C(N[C@@H](Cn1cnc2c(N3CCC(CNC4=NCCN4)CC3)ncnc21)C(=O)O)OCc1ccccc1 [Example 24, 2S-Benzyloxycarbonylamino-3-(6-(4-((4,5-dihydro-1H-imidazol-2-ylamino)-methyl)piperidin-1-yl)purin-9-yl)propionic Acid]
IC50: 52 nM

N=C(N)NCCCCn1cnc2c(NC[C@H](NC(=O)OCc3ccccc3)C(=O)O)ncnc21 [Example 17, N^6-(3-(2S-(Benzyloxycarbonylamino)propionic acid))-^9-(1-(4guanidinyl-butyl))-adenine]
IC50: 170 nM

O=C(N[C@@H](CCNc1ncnc2c1ncn2CCCNC1=NCCN1)C(=O)O)OCc1ccccc1 [Example 13, N^6-(4-(2S-(Benzyloxycarbonylamino)butyric acid))-N^9-(1-(3-(4,5-dihydro-1H-imidazol-2-ylamino)propyl))-adenine]
IC50: 190 nM

O=C(N[C@@H](Cn1cnc2c(NCCCCNC3=NCCN3)ncnc21)C(=O)O)OCc1ccccc1 [Example 4, N^6-(1-(4-(4,5-Dihydro-1H-imidazol-2-ylamino)butyl))-N^9-(3-(2S-(benzyloxycarbonylamino)propionic acid))-adenine]
IC50: 150 nM

NCCCn1cnc2c(NC[C@H](NC(=O)OCc3ccccc3)C(=O)O)ncnc21 [Example 16b, N^6-(3-(2S-(Benzyloxycarbonylamino)propionic acid))-N^9-(1-(3-amino-propyl))-adenine]
K/VnR Inhibition at 10 μM (in %): 29%

O=C(N[C@@H](Cn1cnc2c(NCCCCNc3nc4ccccc4[nH]3)ncnc21)C(=O)O)OCc1ccccc1 [Example 23, 3-(6-((4-(Benzimidazol-2-ylamino)butyl)amino)purin-9-yl)-2S-benzyloxycarbonylaminopropionic Acid]
IC50: 160 nM

N=C(N)NCCCn1cnc2c(NC[C@H](NC(=O)OCc3ccccc3)C(=O)O)ncnc21 [Example 16, N^6-(3-(2S-(Benzyloxycarbonylamino)propionic acid))-N^9-(1-(3-guanidinylpropyl))-adenine]
IC50: 540 nM

N=C(N)NCCCCCn1cnc2c(NC[C@H](NC(=O)OCc3ccccc3)C(=O)O)ncnc21 [Example 14, N^6-(3-(2S-(Benzyloxycarbonylamino)propionic acid))-N^9-(1-(5-guanidinyl-pentyl))-adenine]
IC50: 650 nM

O=C(N[C@H](Cn1cnc2c(N3CCC(CNC4=NCCN4)CC3)ncnc21)C(=O)O)OCc1ccccc1 [Example 25, 2R-Benzyloxycarbonylamino-3-(6-(4-((4,5-dihydro-1H-imidazol-2-ylamino)-methyl)piperidin-1-yl)purin-9-yl)propionic Acid]
IC50: 345 nM

N=C(N)NCCCCCNc1ncnc2c1ncn2C[C@H](NC(=O)OCc1ccccc1)C(=O)O [Example 1, N^6-(1-(5-Guanidinopentyl))-N^9-(3-(2S-(benzyloxycarbonylamino)propionic acid))-adenine]
IC50: 1100 nM

O=C(N[C@@H](CNc1ncnc2c1ncn2CCCCNC1=NCCN1)C(=O)O)OCc1ccccc1 [Example 18]
IC50: 75 nM

N=C(N)NCCCCNc1ncnc2c1ncn2C[C@H](NC(=O)OCc1ccccc1)C(=O)O [Example 2, N^6-(1-(4-Guanidinobutyl))-N^9-(3-(2S-(benzyloxycarbonylamino)propionic acid))-adenine]
IC50: 700 nM

N=C(N)NCCCn1cnc2c(NCC[C@H](NC(=O)OCc3ccccc3)C(=O)O)ncnc21 [Example 12, N^6-(4-(2S-(Benzyloxycarbonylamino)butyric acid))-N^9-(1-(3-guanidinylpropyl))-adenine]
IC50: 580 nM

N=C(N)NCC1CCN(c2ncnc3c2ncn3C[C@H](NC(=O)OCc2ccccc2)C(=O)O)CC1 [Example 26, 2S-Benzyloxycarbonylamino-3-(6-(4-(guanidinomethyl)piperidin-1-yl)purin-9-yl)propionic Acid]
IC50: 360 nM

O=C(N[C@@H](CNc1ncnc2c1ncn2CCCCCNC1=NCCN1)C(=O)O)OCc1ccccc1 [Example 15, N^6-(3-(2S-(Benzyloxycarbonylamino)propionic acid))-N^9-(1-(5-(4,5-dihydro-1H-imidazol-2-ylamino)pentyl))-adenine]
IC50: 210 nM
